Source: ChEMBL document CHEMBL5042535, “Structure-Based Design and Synthesis of N-Substituted 3-Amino-β-Carboline Derivatives as Potent αβ-Tubulin Degradation Agents” (J Med Chem, 2022)
Activity calls are given as the source filed them. The calls are words filed in the database; no cut-off is given here.

Legend:
HeLa [1] = assay: Induction of Alpha/beta tubulin degradation in human HeLa cells pretreated with PYR-41 at 10 uM for 1 hrs followed by compound addition measured after 16 hrs by Western blot analysis; format: cell-based
HeLa [2] = assay: Induction of Alpha/beta tubulin degradation in human HeLa cells pretreated with colchicine at 10 uM for 1 hrs by Western blot analysis; format: cell-based
MCF7 [3] = assay: Antiproliferative activity against human MCF7 cells assessed as reduction in cell viability measured after 24 hrs by MTT assay; format: functional, cell-based; details: MCF7, 24 h
HeLa [4] = assay: Antiproliferative activity against human HeLa cells assessed as reduction in cell viability measured after 24 hrs by MTT assay; format: functional, cell-based
Raji = assay: Antiproliferative activity against human Raji cells assessed as reduction in cell viability measured after 24 hrs by MTT assay; format: functional, cell-based
NCI-H460 = assay: Antiproliferative activity against human NCI-H460 cells assessed as reduction in cell viability measured after 24 hrs by MTT assay; format: functional, cell-based; details: NCI-H460, 24 h
A2780S [5] = assay: Antiproliferative activity against human A2780S cells assessed as reduction in cell viability measured after 24 hrs by MTT assay; format: functional, cell-based
HeLa [6] = assay: Induction of Alpha/beta tubulin degradation in human HeLa cells pretreated with colchicine at 10 uM for 1 hrs followed by compound addition measured after 16 hrs by Western blot analysis; format: cell-based
HeLa [7] = assay: Induction of Beta tubulin degradation in human HeLa cells pretreated with MG132 at 10 uM for 1 hrs followed by compound addition measured after 16 hrs by Western blot analysis; format: cell-based
A2780S [8] = assay: Cytotoxicity in human A2780S assessed as inhibition in cell growth measured after 24 hrs by MTT assay; format: functional, cell-based
A2780/Taxol [9] = assay: Cytotoxicity in human A2780T assessed as inhibition in cell growth measured after 24 hrs by MTT assay; format: functional, cell-based
A549 = assay: Cytotoxicity in human A549 assessed as inhibition in cell growth measured after 24 hrs by MTT assay; format: functional, cell-based; details: A549, 24 h
A549/TR = assay: Cytotoxicity in human A549T assessed as inhibition in cell growth measured after 24 hrs by MTT assay; format: functional, cell-based
MCF7 [10] = assay: Cytotoxicity in human MCF7 assessed as inhibition in cell growth measured after 24 hrs by MTT assay; format: functional, cell-based; details: MCF7, 24 h
NCI/ADR-RES = assay: Cytotoxicity in human NCI-ADR-RES assessed as inhibition in cell growth measured after 24 hrs by MTT assay; format: functional, cell-based
[11] = Drug resistance index, ratio of IC50 for human A2780S cancer cell to ratio of IC50 for human A2780T cancer cell; format: functional
[12] = Drug resistance index, ratio of IC50 for human A549 cancer cell to ratio of IC50 for human A549T cancer cell; format: functional
[13] = Drug resistance index, ratio of IC50 for human MCF7 cancer cell to ratio of IC50 for human NCI-ADR-RES cancer cell; format: functional
[14] = Half life in rat at 5 mg/kg, iv; format: ADME, organism-based; details: in vivo
[15] = Half life in rat at 5 mg/kg, po; format: ADME, organism-based; details: in vivo
[16] = Clearance in rat at 5 mg/kg, iv; format: ADME, organism-based; details: in vivo
[17] = Clearance in rat at 5 mg/kg, po; format: ADME, organism-based; details: in vivo
[18] = Volume of distribution at steady state in rat at 5 mg/kg, iv; format: ADME, organism-based; details: in vivo, read-out: Vdss
[19] = Volume of distribution at steady state in rat at 5 mg/kg, po; format: ADME, organism-based; details: in vivo
[20] = Cmax in rat plasma at 5 mg/kg, iv; format: ADME, organism-based; design: route intravenous, dose 5 mg/kg
[21] = Cmax in rat at 5 mg/kg, po; format: ADME, organism-based; design: route oral, dose 5 mg/kg; details: in vivo
[22] = Oral bioavailability in rat at 5 mg/kg; format: ADME, organism-based; details: in vivo
A2780S [23] = assay: Induction of cell cycle arrest in human A2780S cells assessed as accumulation at G2/M phase at 100 nM measured after 48 hrs by flow cytometry analysis relative to control; format: functional
A2780/Taxol [24] = assay: Induction of cell cycle arrest in human A2780T cells assessed as accumulation at G2/M phase at 100 nM measured after 48 hrs by flow cytometry analysis relative to control; format: functional
A2780S [25] = assay: Induction of cell cycle arrest in human A2780S cells assessed as accumulation at G2/M phase at 300 nM measured after 48 hrs by flow cytometry analysis relative to control; format: functional
A2780/Taxol [26] = assay: Induction of cell cycle arrest in human A2780T cells assessed as accumulation at G2/M phase at 300 nM measured after 48 hrs by flow cytometry analysis relative to control; format: functional
A2780S [27] = assay: Induction of apoptosis in PTX sensitive human A2780S cells at 100 to 300 nM incubated for 48 hrs by Annexin V-FITC/PI staining based flow cytometry method; format: functional, cell-based; details: dose 100-300 nM
A2780/Taxol [28] = assay: Induction of apoptosis in PTX resistant human A2780T cells at 100 to 300 nM incubated for 48 hrs by Annexin V-FITC/PI staining based flow cytometry method; format: functional, cell-based; details: dose 100-300 nM
A2780S [29] = assay: Induction of apoptosis in human A2780S cells assessed as late apoptotic cells level at 30 nM incubated for 48 hrs by Annexin V-FITC/PI staining based flow cytometry (reference value: 5.2%); format: functional
A2780S [30] = assay: Induction of apoptosis in human A2780S cells assessed as late apoptotic cells level at 100 nM incubated for 48 hrs by Annexin V-FITC/PI staining based flow cytometry (reference value: 5.2%); format: functional
A2780S [31] = assay: Induction of apoptosis in human A2780S cells assessed as late apoptotic cells level at 300 nM incubated for 48 hrs by Annexin V-FITC/PI staining based flow cytometry (reference value: 5.2%); format: functional
Tubulin (Homo sapiens) = Tubulin (Homo sapiens) (UniProt P68371+Q9H4B7+P0DPH7+P68366+Q13509+Q71U36+P04350+Q3ZCM7+P07437+P68363+Q9BQE3+Q6PEY2+Q13885+Q9BVA1+Q9BUF5); assay: Inhibition of tubulin polymerization in human A2780S cells assessed as microtubule network polymerization at 10 to 1000 nM after 24 hrs by immunofluorescence analysis; format: cell-based; details: dose 10-1000 nM
HUVEC [32] = assay: Antimigratory activity against human HUVEC cells assessed as reduction in cell migration at upto 10 nM incubated for 24 hrs by wound healing assay; format: functional; design: scale not given: the % may be the effect or the level left; details: dose nM <=10
HUVEC [33] = assay: Antimigratory activity against human HUVEC cells assessed as reduction in cell migration at upto 10 nM incubated for 48 hrs by wound healing assay; format: functional; design: scale not given: the % may be the effect or the level left; details: dose nM <=10
HUVEC [34] = assay: Antimigratory activity against human HUVEC cells assessed as reduction in tumor cell migration at upto 5 nM incubated for 24 hrs by wound healing assay relative to control; format: functional; design: scale not given: the % may be the effect or the level left; details: dose nM <=5
HUVEC [35] = assay: Antimigratory activity against human HUVEC cells assessed as reduction in cell migration at upto 5 nM incubated for 48 hrs by wound healing assay relative to control; format: functional; design: scale not given: the % may be the effect or the level left; details: dose nM <=5
HUVEC [36] = assay: Antimigratory activity against human HUVEC cells assessed as reduction in metastasis at upto 5 nM incubated for 24 hrs by wound healing assay; format: functional, cell-based; details: dose nM <=5, time 24.0 hrs
HUVEC [37] = assay: Antimigratory activity against human HUVEC cells assessed as reduction in metastasis at upto 5 nM incubated for 48 hrs by wound healing assay; format: functional, cell-based; details: dose nM <=5, time 48.0 hrs
A2780S [38] = assay: Antitumor activity against human A2780S cells xenografted in mouse assessed as tumor growth inhibition at 10 mg/kg, iv measured on three times in week; format: functional; details: read-out: TGI
A2780S [39] = assay: Antitumor activity against human A2780S cells xenografted in mouse assessed as tumor growth inhibition at 20 mg/kg, iv measured on three times in week; format: functional; details: read-out: TGI
A2780S [40] = assay: Antitumor activity against human A2780S cells xenografted in mouse assessed as tumor growth inhibition at 40 mg/kg, iv; format: functional; details: read-out: TGI
[41] = Toxicity in mouse xenografted with human A2780S cells assessed as body weight loss at 40 mg/kg, iv; format: organism-based; details: in vivo
A2780S [42] = assay: Antitumor activity against mouse xenografted with human A2780S cell assessed as tumor growth inhibition at 40 mg/kg, po; format: functional; details: read-out: TGI
[43] = Toxicity in mouse xenografted with human A2780S cells assessed as body weight loss at 40 mg/kg, po; format: organism-based; details: in vivo
HeLa [44] = assay: Induction of Alpha/beta tubulin degradation in human HeLa cells measured after 16 hrs by immunoblot analysis; format: cell-based; details: dose 0-50 µM
HeLa [45] = assay: Induction of Beta tubulin degradation in human HeLa cells at upto 10 uM for 16 hrs by immunoblot analysis; format: cell-based; details: dose microM <=10, time 16.0 hrs
K562 = assay: Induction of Beta tubulin degradation in human K562 cells at upto 10 uM for 16 hrs by immunoblot analysis; format: cell-based; details: dose microM <=10, time 16.0 hrs
A2780S [46] = assay: Effect on microtubule network in human A2780S cells assessed as bundling of microtubule fibers near nucleus at 100 nM for 24 hrs; format: functional, cell-based
A2780S [47] = assay: Antitumor activity against human A2780S cells xenografted in mouse assessed as tumor growth inhibition at 20 mg/kg, ip; format: functional; details: read-out: TGI
A2780/Taxol [48] = assay: Antitumor activity against human A2780T cells xenografted in mouse assessed as tumor growth inhibition at 10 mg/kg, iv treated 3 times a week; format: functional; details: read-out: TGI
A2780/Taxol [49] = assay: Antitumor activity against human A2780T cells xenografted in mouse assessed as tumor growth inhibition at 20 mg/kg, iv treated 3 times a week; format: functional; details: read-out: TGI
A2780/Taxol [50] = assay: Antitumor activity against human A2780T cells xenografted in mouse assessed as tumor growth inhibition at 40 mg/kg, iv treated 3 times a week; format: functional; details: read-out: TGI
A2780/Taxol [51] = assay: Antitumor activity against mouse xenografted with human A2780T cell assessed as tumor growth inhibition at 20 mg/kg, ip; format: functional; details: read-out: TGI

## c1cc(CNc2cc3c(cn2)[nH]c2ccccc23)cc(Oc2ccc3c(c2)OCO3)c1
HeLa [1]
  Activity: Active
HeLa [2]
  Activity: Active
MCF7 [3]
  IC50: 9 nM
HeLa [4]
  IC50: 5 nM
Raji
  IC50: 13 nM
NCI-H460
  IC50: 14 nM
A2780S [5]
  IC50: 8 nM
HeLa [6]
  Activity: Active
HeLa [7]
  Activity: Active
A2780S [8]
  IC50: 16.4 nM
A2780/Taxol [9]
  IC50: 13.1 nM
A549
  IC50: 60.1 nM
A549/TR
  IC50: 63.8 nM
MCF7 [10]
  IC50: 11.3 nM
NCI/ADR-RES
  IC50: 13.5 nM
[11]
  Ratio IC50: 0.8
[12]
  Ratio IC50: 1.1
[13]
  Ratio IC50: 1.2
[14]
  half-life: 3.57 h
[15]
  half-life: 4.42 h
[16]
  clearance: 25.3 mL/min/kg
[17]
  CL/F: 84.3 mL/min/kg
[18]
  Vd: 8.08 L/kg
[19]
  Vdss: 35.26 L/kg
[20]
  Cmax: 189 ng/mL
[21]
  Cmax: 2600 ng/mL
[22]
  bioavailability: 30.7%
A2780S [23]
  Activity: 55.1%
A2780/Taxol [24]
  Activity: 72.18%
A2780S [25]
  Activity: 79.54%
A2780/Taxol [26]
  Activity: 72.89%
A2780S [27]
  Activity: Active
A2780/Taxol [28]
  Activity: Active
A2780S [29]
  Activity: 3.7%
A2780S [30]
  Activity: 25.2%
A2780S [31]
  Activity: 30.6%
Tubulin (Homo sapiens)
  Activity: inactive
HUVEC [32]
  Activity: 20.8%
HUVEC [33]
  Activity: 28.47%
HUVEC [34]
  Activity: 76.21%
HUVEC [35]
  Activity: 85.07%
HUVEC [36]
  Activity: Active
HUVEC [37]
  Activity: Active
A2780S [38]
  inhibition in vivo at 10 mg/kg: 66.1%
A2780S [39]
  inhibition in vivo at 20 mg/kg: 71.5%
A2780S [40]
  inhibition in vivo at 40 mg/kg: 92.4%
[41]
  Activity: Non-Toxic
A2780S [42]
  inhibition in vivo at 40 mg/kg: 34.9%
[43]
  Activity: Toxic
HeLa [44]
  Activity: Active
HeLa [45]
  Activity: Active
K562
  Activity: Active

## CC(=O)O[C@H]1C(=O)[C@@]2(C)[C@H]([C@H](OC(=O)c3ccccc3)[C@]3(O)C[C@H](OC(=O)[C@H](O)[C@@H](NC(=O)c4ccccc4)c4ccccc4)C(C)=C1C3(C)C)[C@]1(OC(C)=O)CO[C@@H]1C[C@@H]2O [PACLITAXEL]
A2780S [8]
  IC50: 60.4 nM
A2780/Taxol [9]
  IC50: 58900 nM
A549/TR
  IC50: 802 nM
NCI/ADR-RES
  IC50: 9340 nM
[11]
  Ratio IC50: 974.4
[12]
  Ratio IC50: 33.1
[13]
  Ratio IC50: 289
A2780S [46]
  Activity: Active
A2780S [47]
  inhibition in vivo at 20 mg/kg: 66.1%
A2780/Taxol [48]
  inhibition in vivo at 10 mg/kg: 26.9%
A2780/Taxol [49]
  inhibition in vivo at 20 mg/kg: 37.2%
A2780/Taxol [50]
  inhibition in vivo at 40 mg/kg: 75.7%
A2780/Taxol [51]
  inhibition in vivo at 20 mg/kg: 21.7%
